# Source: PubChem BioAssay AID977605 (Broad Institute, 2014)
# Activity calls are given as the source filed them.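 How the source made its calls: active means fitted curve reaches 40% activation below the top valid tested dose, in every test run; inconclusive means test runs disagree on the call; inactive means the rest, including effects opposite to the expected direction.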
# System: not listed separately
# Assay: E-selectin inducers in HUVECs, dose response, imaging, HUVEC, cherry-picked samples (AID 977605);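 further: signal is the share of imaged cells scored positive for E-selectin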
# Conditions: HUVEC E-selectin immunostaining, at 19.5 µM (top of the series), percent of TNF-alpha response over vehicle
row,SMILES,activation
1,C[C@@H]1CN([C@H](C)CO)C(=O)c2cc(NC(=O)Cn3cnnn3)ccc2O[C@@H]1CN(C)S(=O)(=O)c1ccccc1,0.017% (inactive)
2,C[C@@H]1CN([C@H](C)CO)C(=O)Cc2cc(NS(=O)(=O)c3ccc(F)cc3)ccc2O[C@H]1CN(C)S(=O)(=O)c1ccc(Cl)cc1,5.23% (inactive)
3,C[C@@H]1CN([C@@H](C)CO)C(=O)c2cccc(NC(=O)Nc3ccccc3)c2O[C@H]1CN(C)S(=O)(=O)c1ccccc1,0.91% (inactive)

# Same assay, conditions: HUVEC E-selectin immunostaining, at 21 µM (top of the series), percent of TNF-alpha response over vehicle
row,SMILES,activation
1,COc1ccc(S(=O)(=O)Nc2ccc3c(c2)C(=O)N([C@@H](C)CO)C[C@@H](C)[C@@H](CN(C)Cc2ccc(Cl)c(Cl)c2)O3)cc1,-0.053% (inactive)
2,C[C@H]1CN([C@@H](C)CO)C(=O)Cc2cc(NC(=O)Nc3ccc4c(c3)OCO4)ccc2O[C@@H]1CN(C)C,-0.039% (inactive)

# System: HUVEC E-selectin immunostaining, imaging, 16 h
# Assay: as above
# Conditions: not given
row,SMILES,AC40
1,Cc1cc2ccccc2n1CCNC(=O)COc1ccc2ccccc2c1,11.3 µM
2,Cc1cc(C)c(S(=O)(=O)NCCn2c(C)cc3ccccc32)c(C)c1,14.3 µM
3,FC(F)(F)c1ccc2c(c1)N1CCCC1CN2 (configuration not stated),7.71 µM
4,Cc1cc2c(SCc3ccccc3Cl)nc(N)nc2nc1C,11.4 µM
5,COc1cccc(CNC(=O)c2cc3c(c(-c4cccc(-c5ccc(C#N)cc5)c4)n2)[C@H](CCO)N([S@@](=O)C(C)(C)C)C3)c1,14.7 µM
6,COc1ccc(CNC(=O)c2cc3c(c(-c4cccc(-c5cccc(C#N)c5)c4)n2)[C@H](CCO)N([S@@](=O)C(C)(C)C)C3)cc1,19.4 µM
7,Cc1cc2cc(CNC(=O)Nc3ccc(Cl)c(Cl)c3)ccc2n1C,10.1 µM
8,COc1ccc(NC(=O)N(C)C[C@H]2Oc3ccc(NS(=O)(=O)c4cccs4)cc3C(=O)N([C@H](C)CO)C[C@@H]2C)cc1,17.7 µM
9,COc1ccc(S(=O)(=O)N(C)C[C@@H]2OCCCC[C@H](C)Oc3ccc(NC(=O)Nc4cccc5ccccc45)cc3C(=O)N([C@H](C)CO)C[C@H]2C)cc1,17.7 µM
10,CO[C@@H]1CN(C)C(=O)c2ccc(NC(=O)Nc3ccc(F)cc3)cc2OC[C@@H](C)N(C(=O)c2ccc(F)cc2)C[C@H]1C,12.4 µM
11,Cc1cc2cc(CNC(=O)Nc3cccc(Cl)c3)ccc2n1C,10.8 µM
12,Cc1ccc(S(=O)(=O)NCc2ccc3c(c2)cc(C)n3C)cc1,13.6 µM
13,O=C(C[C@@H]1CC[C@H]2[C@@H](COC[C@H](O)CN2C(=O)c2ccc(F)cc2)O1)Nc1ccc(-c2ccccc2)cc1,8 µM
14,CC(C)(C)[S@](=O)N1Cc2cc(C(=O)N[C@H]3CCN(Cc4ccccc4)C3)nc(-c3cccc(-c4ccncc4)c3)c2[C@@H]1CCO,13.2 µM
15,Cc1cccc(NC(=O)NCc2ccc3c(c2)cc(C)n3C)c1,12 µM
16,COc1ccc(Nc2ccccc2N)cc1,5.67 µM
17,Cc1cccc(-c2cc(N3CCCN(C)CC3)n3nccc3n2)c1,5.24 µM
